Source: US9718771B2, “Aniline derivative, pharmaceutical composition containing same, and use thereof” (Kissei Pharmaceutical Co., Ltd., priority 2014, dated 2017)
One block for each compound: values may come before it.

What was measured:
[1] = biological target: human S1P1 (EDG-1) (Homo sapiens (Human), UniProt P21453); experiment: Confirmation test of antagonistic activity for human S1P1 receptor (35S-GTP binding, cell membranes); format: biochemical; settings: inhibition of 35S-GTP binding induced by S1P1 receptor selective agonist; HEK293 membranes expressing human S1P1
Sequence of human S1P1 (EDG-1) (P21453 whole entry): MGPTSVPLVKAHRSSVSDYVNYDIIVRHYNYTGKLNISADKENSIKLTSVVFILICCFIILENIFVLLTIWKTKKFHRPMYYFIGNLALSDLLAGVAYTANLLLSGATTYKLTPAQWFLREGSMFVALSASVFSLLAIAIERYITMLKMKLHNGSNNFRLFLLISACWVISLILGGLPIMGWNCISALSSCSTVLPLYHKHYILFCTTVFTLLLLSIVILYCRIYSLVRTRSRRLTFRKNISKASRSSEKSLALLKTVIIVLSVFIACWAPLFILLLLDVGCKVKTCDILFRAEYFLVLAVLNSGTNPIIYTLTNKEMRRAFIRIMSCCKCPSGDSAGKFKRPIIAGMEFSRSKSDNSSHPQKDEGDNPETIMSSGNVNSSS
Experimental: Confirmation Test of Antagonistic Activity for Human S1P1 Receptor
Test compounds were tested by reduction of functional binding activity of ^35S-GTP (guanosine 5′-O-[gamma-thio] triphosphate, PerkinElmer) to G protein using cell membranes expressing human S1P1 (EDG-1). S1P1-pcDNA3.1/V5-His-Topo vector was prepared by inserting cDNA (NM_001400) encoding human S1P1 into the expression vector, pcDNA3.1/V5-His-Topo (registered trademark) (Invitrogen). Next, the above S1P1-pcDNA3.1 vector was transfected into HEK293 cells by Lipofectamine2000 (registered trademark) (Invitrogen). The transfected cells were incubated with D-MEM liquid medium each containing 10% FBS (Fetal bovine serum), 100 U/mL penicillin, 100 μg/mL streptomycin and 1 mg/mL Geneticin (registered trademark) (Invitrogen) in an incubator under the condition of 5% CO2 at 37° C. and Geneticin (registered mark)-resistant cell line stably expressing S1P1 were obtained. The obtained stably S1P1-expressing cells were incubated with D-MEM liquid medium each containing 10% FBS and 0.5 mg/mL Geneticin (registered trademark) in an incubator under the condition of 5% CO2 at 37° C. The cells grown to confluence were harvested by a buffer solution containing 50 mM Tris, 2 mM EDTA (ethylmediaminetetraacetic acid) and 125 mM sodium chloride, and centrifuged at 1880×g, 4° C. for 10 minutes. After a supernatant was removed, a cell pellet was resuspended by the same buffer solution. For making cell membranes fragile, this cell suspension was frozen at −80° C. and then thawed. The cells were centrifuged at 1880×g, 4° C. for 10 minutes, and a supernatant was removed. The cell pellet was suspended by adding the same buffer solution and a fracture solution (10 mM sodium bicarbonate and 5 mM EDTA, pH 7.5) at a ratio of 2:1. The cells were fractured by subjecting the cell suspension to ultrasonication, and a cell membrane fraction was isolated by centrifugation at 1880×g, 4° C. for 10 minutes and ultracentrifugation of the supernatant at 80000×g, 4° C. for 30 minutes. A pellet of the cell membrane fraction was suspended by the fracture solution containing protease inhibitor cocktail (Roche) and stored at −80° C. until use. A protein concentration of the cell membrane fraction was determined using BCA Protein Assay Kit (Pierce) in accordance with an attached protocol.
Inhibitory activity evaluation was performed by multi-screen (registered trademark) HTS 96-well plate (Millipore) using the cell membrane fraction stably expressing S1P1 obtained by the above operation. 25 μL of assay solution (50 mM Tris, 100 mM sodium chloride, 5 mM magnesium chloride, 1 mM EDTA, 1 mM DTT (dithiothreitol), 10 μM GDP (guanosine diphosphate) and 0.5% BSA (bovine serum albumin), pH 7.4), 25 μL of test compounds solution diluted by assay solution and 25 μL of the membrane fraction (0.2 μg protein/μL) were added to each well, and the mixture was gently shaken at room temperature: for 30 minutes. Then, 25 μL of ^35S-GTP, and 25 μL of 50 nM S1P1 receptor selective agonist (1-[4-(4-phenyl-5-trifluoromethylthiophen-2-ylmethoxy)benzyl]azetidine-3-carboxylic acid, “J. Med. Chem.”, 2004, vol. 47, pp. 6662-6665, compound 18) were added to each well, respectively, and it was reacted at room temperature for 60 minutes. After the reaction, a reaction solution of each well was suction-filtered. After suction filtration, ice-colded wash solution (50 mM Tris, 100 mM sodium chloride, […] and 1 mM EDTA, pH 7.4) was added to each well, and moreover filters were washed by suction filtration. This wash procedure was performed three times. A bottom of the plate containing the filters was dried at 60° C. After drying, 30 μL of MicroScinti-40 (PerkinElmer) was added to each well, and the radioactivity adsorbed on the filter was determined by TopCount NXT (registered trademark) (PerkinElmer) after shaking for 30 minutes at room temperature. […]

[2] = system: blood lymphocytes; experiment: Confirmation test for reduction effects on the number of lymphocytes; format: in vivo, Male Sprague-Dawley rats; settings: rat, oral; for Number of lymphocytes (% of Vehicle) After 6 hours: 6 hours after administration; for Number of lymphocytes (% of Vehicle) After 24 hours: 24 hours after administration; for Number of lymphocytes (% of Vehicle) After 48 hours: 48 hours after administration
Experimental: Confirmation Test for Reduction Effects on the Number of Lymphocytes
Reduction effects on the number of blood lymphocytes by test compounds were confirmed using Male Sprague-Dawley rats (Japan SLC, 7-weeks-old in use). Administration solutions for test compounds were prepared on hot-plate at 50° C. After test compounds were dissolved by DMSO (dimethyl sulfoxide, Wako Pure Chemicals) of 1/10 volume of the total volume, WellSolve (Celeste) of 1/10 volume of the total volume was added to this solution. Further, distilled water (Otsuka Pharmaceutical Factory) of 8/10 volume of the total volume was added to this solution, and the administration solutions for test compounds were prepared. A solution, prepared in the same volume ratios of DMSO. WellSolve and distilled water as the administration solution for test compounds, was used as a solvent (Vehicle). Vehicle or test compound was administered orally to rats at 1 mL/body. After 6, 24 and 48 hours from administration of vehicle or test compounds, rats were held on the board at supine position under inhalation anesthesia with isoflurane (Abbott Japan). Blood samples (200 to 250 μL) were collected from the cervical vein of this rat using 1 mL syringes with needles of 25G. The collected blood samples were transferred to a microtube treated with EDTA-2K (Japan Becton Dickinson), and stored at room temperature after gently mixing with inversion. The number of lymphocytes was measured by ADVIA (registered mark) (Bayer), which is a multi-parameter automated blood cell counter using this blood samples. The average number of lymphocytes in vehicle-treated group (vehicle group) was defined as 100%, and the average number of lymphocytes in each test compound-treated group was calculated as % of vehicle. As Comparative Example 2, 1-{5-[1-(4-chloro-3-methyl-phenyl)-propylamino]-2-methyl-benzyl}-azetidine-3-carboxylic acid (patent literature 1, Example 4) was evaluated as well.

[3] = system: Naïve T cells-transferred colitis model; experiment: Drug efficiency evaluation in naïve T cells-transferred colitis model; format: in vivo; settings: SCID mice, mean ± standard error
Experimental: The Drug Efficiency Evaluation in Naïve T Cells—Transferred Colitis Model
(1) Purification of CD45RB Positive Naïve T Cells and Transfer the Cells into SCID Mice
After female BALB/c mice (Charles River Japan, 8-weeks-old in use) were sacrificed by blood removal from cervical vein under inhalation anesthesia with isoflurane spleens were harvested from these mice. Spleens were washed with ice-cold PBS (phosphate buffered saline, Invitrogen) and stored in 50 mL tube containing PBS on ice. Spleens stored on ice were mashed with the upper portion of slide glasses inside a biological safety cabinet, and filtered through a cell filter (pore size 70 μm), and the filtrate was centrifuged at 500×g, room temperature for 5 minutes. After the supernatant was removed, 12 mL of RBC lysis buffer (Biolegend) was added to a cell pellet and it was resuspended and left for about 3 minutes. The supernatant was removed after centrifugation and the hemolytic process was performed by repeating same procedure once again.
The cells were purified with Mouse Naive T cell CD4^+/CD62L^+/CD44^low Colum Kit (R&D systems). The cells performed with the hemolytic process, were suspended by column buffer attached to the above Column Kit, and purified through a cell filter (pore size 70 μm) after centrifugation at 500×g, room temperature for 5 minutes. The cells were resuspended with column buffer, and antibody cocktails attached to the above Column Kit were added to this and mixed. After that, the cells were purified according to the protocol of the Column Kit.
Next, purification of CD45RB positive cells was performed by MACS (registered mark) separator (Miltenyi Biotec). The purified cells were suspended with 2 mL of PBS containing 0.5% BSA, and reacted at room temperature for 15 minutes after adding FITC (fluorescein isothiocyanate)-labeled anti-CD45RB antibody (Biolegend). After washing two times with PBS containing 0.5% BSA by centrifugation, the cells were resuspended with 2 mL of PBS containing 0.5% BSA and reacted at room temperature for 10 minutes after adding anti-FITC microbeads (Miltenyi Biotec). After washing one time with PBS containing 0.5% BSA by centrifugation, the cells were resuspended with 3 mL of PBS containing 0.5% BSA, and a fraction of CD45RB positive cells was purified according to the protocol of MACS (registered trademark) separator. In the process of elution after detached from MACS (registered trademark) separator, the cells were separated with 5 mL of PBS. The cell suspension was washed one time by centrifugation with PBS, resuspended by appropriate PBS and measured the cell number as naïve T cells suspension for transfer. Female CB17/Icr-scid/scid Jcl (SCID mice) (Charles River Japan, 8-weeks-old in use) were induced colitis by intraperitoneal administration of 500 μL (divided into 250 μL two times) of naïve T cells suspension prepared at 6×10^5 cells/mL by PBS.
(2) Measurement of Body Weight and Procedure for Administration of Drugs
Body weights were measured at day 1, 8 and 15 as day 0 when naïve T cells were transferred to mice. Mice were grouped evenly, based on body weight change at day 15. The measurement of body weight was performed two times a week after day 15. A solvent (Vehicle) and test compounds were administered twice a day from the evening of day 15. The administration solution was prepared as indicated below. Firstly, 0.5% methyl cellulose (Wako pure chemicals) of 1/10 volume of total volume was added to test compound, and a suspension was prepared by sonication. […] After that, administration solutions for test compounds were prepared by sonication while adding distilled water of 9/10 volume of total volume to these suspensions in several batches. A solution prepared in the same volume ratios of 0.5% methyl cellulose and distilled water as administration solutions for test compounds was used as vehicle. Administration solutions for vehicle or test compounds were orally administered to mice at 5 mL/kg.

[4] = oral twice a day, 1.5 mg/kg, vehicle group = 100%

IC50 [1]: 2.9 nM
Structure (SMILES): CCN(c1ccc(Cl)c(C(F)(F)F)c1)C1CCc2c1ccc(C)c2CN1CC(C(=O)O)C1 (centres unmarked) [Compound 2-8, 1-{1-[(4-Chloro-3-trifluoromethylphenyl)(ethyl)amino]-5-methylindan-4-ylmethyl}azetidine-3-carboxylic acid]
Number of lymphocytes (% of Vehicle) After 6 hours ([2]; 1 mg/kg): 15.1 % of Vehicle | Number of lymphocytes (% of Vehicle) After 24 hours ([2]; 1 mg/kg): 34.5 % of Vehicle | Number of lymphocytes (% of Vehicle) After 48 hours ([2]; 1 mg/kg): 87.7 % of Vehicle | Number of lymphocytes (% of Vehicle) After 6 hours ([2]; 10 mg/kg): 13.7 % of Vehicle | Number of lymphocytes (% of Vehicle) After 24 hours ([2]; 10 mg/kg): 12.3 % of Vehicle | Number of lymphocytes (% of Vehicle) After 48 hours ([2]; 10 mg/kg): 33.4 % of Vehicle

Structure (SMILES): Nc1ccc(O)c(C(=O)O)c1 [5-Aminosalicylic acid, reference compound]
Colon weight (%) ([3]; oral twice a day, vehicle group = 100%): 75.9 ± 58.3%

Structure (SMILES): CCC(Nc1ccc(C)c(CN2CC(C(=O)O)C2)c1)c1ccc(Cl)c(C)c1 (centres unmarked) [Comparative Example 2, 1-{5-[1-(4-chloro-3-methyl-phenyl)-propylamino]-2-methyl-benzyl}-azetidine-3-carboxylic acid, reference compound]
Number of lymphocytes (% of Vehicle) After 6 hours ([2]; 1 mg/kg): 39.9 % of Vehicle | Number of lymphocytes (% of Vehicle) After 24 hours ([2]; 1 mg/kg): 82.3 % of Vehicle | Number of lymphocytes (% of Vehicle) After 48 hours ([2]; 1 mg/kg): 109.6 % of Vehicle | Number of lymphocytes (% of Vehicle) After 6 hours ([2]; 10 mg/kg): 16.8 % of Vehicle | Number of lymphocytes (% of Vehicle) After 24 hours ([2]; 10 mg/kg): 94.0 % of Vehicle | Number of lymphocytes (% of Vehicle) After 48 hours ([2]; 10 mg/kg): 110.3 % of Vehicle | time course of the number of lymphocytes in blood (in words) ([2]; 6 to 48 hours after administration): transient reduction of the number of lymphocytes in blood

Structure (SMILES): C[C@]12C=CC(=O)C=C1CC[C@@H]1[C@@H]2[C@@H](O)C[C@@]2(C)[C@H]1CC[C@]2(O)C(=O)CO [Prednisclone, reference compound]
Body weight change ratio (%) ([3]; oral twice a day from day 15, 1.5 mg/kg, day 30): −10.4 ± 1.4% | Colon weight (%) [3, 4]: 58.3 ± 18.9% | DAI score (%) [3, 4]: 104.4 ± 20.0%

Structure (SMILES): Cc1ccc(C(C)N(C)c2ccc(C#N)c(C(F)(F)F)c2)cc1CN1CC(C(=O)O)C1 (centres unmarked) [Compound 2-44]
IC50 [1]: 9 nM

IC50 [1]: 6.7 nM
Structure (SMILES): Cc1ccc(C(C)N(C)c2ccc(Cl)c(C(F)(F)F)c2)cc1CN1CC(C(=O)O)C1 (centres unmarked) [Compound 2-25, 1-(5-{1-[(4-Chloro-3-trifluommethylphenyl)(methyl)amino]ethyl}-2-methylbenzyl)azetidine-3-carboxylic acid]

IC50 [1]: 7.8 nM
Structure (SMILES): CC(c1ccc(Cl)c(CN2CC(C(=O)O)C2)c1)N(C)c1ccc(Cl)c(C(F)(F)F)c1 (centres unmarked) [Compound 2-33, 1-(2-Chloro-5-{1-[(4-chloro-3-trifluoromethylphenyl)(methyl)amino]-ethyl}benzyl)azetidine-3-carboxylic acid]

IC50 [1]: 5 nM
Structure (SMILES): CCN(c1ccc(Cl)c(C)c1)C1CCc2c(CN3CC(C(=O)O)C3)cc(C)cc21 (centres unmarked) [Compound 2-22]

IC50 [1]: 1.5 nM
Structure (SMILES): CCN(c1ccc(Cl)c(C(F)(F)F)c1)C(C)c1ccc(Cl)c(CN2CC(C(=O)O)C2)c1 (centres unmarked) [Compound 2-34, 1-(2-Chloro-5-{1-[(4-chloro-3-trifluoromethylphenyl)(ethyl)amino]ethyl}-benzyl)azetidine-3-carboxylic acid]
